≈ marks a conversion by molar mass, not a printed value.
Key:
[1] = molecular target: T1, Serine/threonine-protein kinase PAK 1 (Homo sapiens, UniProt Q13153); assay: Inhibition of PAK1 (unknown origin)
[2] = molecular target: T2, Serine/threonine-protein kinase PAK 4 (Homo sapiens, UniProt O96013); assay: Inhibition of human PAK4
[3] = Metabolic stability in rat liver S9 fraction assessed as compound remaining at 1 uM measured at 60 mins in presence of NADPH; type: ADME, subcellular; conditions: read-out: Stability
[4] = molecular target: T1, Serine/threonine-protein kinase PAK 1; assay: Inhibition of human recombinant PAK1 kinase domain using coumarin/fluorescein-labeled FRET peptide as substrate assessed as substrate phosphorylation at Ser/Thr19 preincubated for 10 mins followed by ATP addition measured after 60 mins by Z'-LYTE assay
[5] = Drug metabolism in rat liver S9 fraction assessed as N-acetyltransferase-mediated metabolite formation by measuring parent compound level at 1 uM after 60 mins in presence of acetyl CoA, NADPH; type: ADME, subcellular; conditions: s9, 1 h
Liver [6] = assay: Metabolic stability in rat liver S9 fraction at 1 uM after 60 mins in absence of NADPH; type: ADME; conditions: s9, 1 h
[7] = molecular target: T2, Serine/threonine-protein kinase PAK 4; assay: Inhibition of human recombinant PAK4 kinase domain using coumarin/fluorescein-labeled FRET peptide as substrate assessed as substrate phosphorylation at Ser/Thr19 preincubated for 10 mins followed by ATP addition measured after 60 mins by Z'-LYTE assay
[8] = Apparent permeability across basolateral to apical side in MDCK cells; type: ADME, cell-based, Canis lupus familiaris; conditions: dog
[9] = Lipophilicity, log D of the compound; type: physicochemical; conditions: octanol/water
[10] = molecular target: T1, Serine/threonine-protein kinase PAK 1; assay: Inhibition of PAK1 in human EBC1 cells assessed as inhibition of MEK phosphorylation at S298 after 2 hrs by HTRF assay; type: cell-based
[11] = Kinetic solubility of the compound; type: physicochemical; conditions: read-out: Kinetic_solubility
Hepatocyte = assay: Drug uptake in mouse hepatocytes; type: ADME, cell-based
Liver [12] = assay: Metabolic stability in rat liver S9 fraction at 1 uM after 60 mins in presence of NADPH; type: ADME, subcellular; conditions: s9, 1 h
Mus musculus = assay: Plasma clearance in mouse at 2 mg/kg, iv administered as bolus dose; type: ADME, organism-based; conditions: in vivo
[13] = Apparent permeability across apical to basolateral side in MDCK cells; type: ADME, cell-based, Canis lupus familiaris; conditions: dog
Rattus norvegicus = assay: Plasma clearance in rat at 2.5 mg/kg, iv administered as bolus dose; type: ADME, organism-based; conditions: in vivo
[14] = Drug metabolism in rat liver S9 fraction assessed as N-acetyltransferase-mediated metabolite formation by measuring parent compound level at 1 uM after 80 mins in presence of acetyl CoA, NADPH; type: ADME, subcellular; conditions: s9, 80 min
[15] = Drug metabolism in rat liver S9 fraction assessed as oxidative metabolite formation by measuring parent compound level at 1 uM measured over 60 mins in presence of NADPH; type: ADME, subcellular; conditions: s9, 1 h
[16] = Plasma clearance in rat at 2 mg/kg, iv administered as bolus dose; type: ADME, organism-based
[17] = Drug metabolism in rat liver S9 fraction assessed as glucuronide metabolite formation at 1 uM in presence of UDPGA; type: ADME, subcellular; conditions: s9, 1 µM
[18] = Lipophilicity, log D of the compound at pH 7.4; type: physicochemical; conditions: buffer
[19] = Drug metabolism in rat liver S9 fraction assessed as N-acetyltransferase-mediated metabolite formation at 1 uM measured over 60 mins in presence of acetyl CoA, NADPH; type: ADME, subcellular; conditions: s9, 1 h
[20] = Plasma protein binding in rat; type: ADME, cell-free; conditions: read-out: PPB (converted)
[21] = Plasma clearance in rat at 1 mg/kg, iv administered as bolus dose; type: ADME, organism-based
[22] = Oral bioavailability in rat at 5 mg/kg; type: ADME, organism-based; conditions: in vivo
Aurora kinase A = molecular target: T3, Aurora kinase A (Homo sapiens, UniProt O14965); assay: Inhibition of aurora A (unknown origin)
T3 sequence (O14965 whole entry): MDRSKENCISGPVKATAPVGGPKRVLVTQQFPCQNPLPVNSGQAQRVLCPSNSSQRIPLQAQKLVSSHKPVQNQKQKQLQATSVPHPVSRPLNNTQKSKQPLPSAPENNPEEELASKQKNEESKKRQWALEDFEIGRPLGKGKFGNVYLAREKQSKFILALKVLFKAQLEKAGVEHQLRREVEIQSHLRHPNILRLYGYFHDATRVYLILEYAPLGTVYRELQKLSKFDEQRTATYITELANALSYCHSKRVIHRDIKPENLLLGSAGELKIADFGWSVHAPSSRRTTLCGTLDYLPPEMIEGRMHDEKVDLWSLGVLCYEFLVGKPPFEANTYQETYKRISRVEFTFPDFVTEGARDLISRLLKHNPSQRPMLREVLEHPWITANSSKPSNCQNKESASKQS

T1 sequence (Q13153 whole entry): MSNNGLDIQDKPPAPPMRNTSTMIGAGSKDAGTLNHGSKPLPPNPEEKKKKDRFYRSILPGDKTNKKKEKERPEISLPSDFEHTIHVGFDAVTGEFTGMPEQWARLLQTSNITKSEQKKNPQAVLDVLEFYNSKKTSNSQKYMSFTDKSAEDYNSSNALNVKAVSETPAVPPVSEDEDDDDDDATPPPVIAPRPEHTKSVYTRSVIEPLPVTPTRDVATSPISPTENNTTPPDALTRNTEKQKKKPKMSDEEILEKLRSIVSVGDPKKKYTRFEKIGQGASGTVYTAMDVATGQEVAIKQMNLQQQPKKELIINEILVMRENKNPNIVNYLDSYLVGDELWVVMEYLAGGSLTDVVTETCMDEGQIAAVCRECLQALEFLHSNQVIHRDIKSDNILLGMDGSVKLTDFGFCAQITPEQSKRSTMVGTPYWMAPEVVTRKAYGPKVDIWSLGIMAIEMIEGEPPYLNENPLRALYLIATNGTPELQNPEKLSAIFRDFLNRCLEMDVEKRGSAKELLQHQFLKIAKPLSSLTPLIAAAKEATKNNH
T2 sequence (O96013 whole entry): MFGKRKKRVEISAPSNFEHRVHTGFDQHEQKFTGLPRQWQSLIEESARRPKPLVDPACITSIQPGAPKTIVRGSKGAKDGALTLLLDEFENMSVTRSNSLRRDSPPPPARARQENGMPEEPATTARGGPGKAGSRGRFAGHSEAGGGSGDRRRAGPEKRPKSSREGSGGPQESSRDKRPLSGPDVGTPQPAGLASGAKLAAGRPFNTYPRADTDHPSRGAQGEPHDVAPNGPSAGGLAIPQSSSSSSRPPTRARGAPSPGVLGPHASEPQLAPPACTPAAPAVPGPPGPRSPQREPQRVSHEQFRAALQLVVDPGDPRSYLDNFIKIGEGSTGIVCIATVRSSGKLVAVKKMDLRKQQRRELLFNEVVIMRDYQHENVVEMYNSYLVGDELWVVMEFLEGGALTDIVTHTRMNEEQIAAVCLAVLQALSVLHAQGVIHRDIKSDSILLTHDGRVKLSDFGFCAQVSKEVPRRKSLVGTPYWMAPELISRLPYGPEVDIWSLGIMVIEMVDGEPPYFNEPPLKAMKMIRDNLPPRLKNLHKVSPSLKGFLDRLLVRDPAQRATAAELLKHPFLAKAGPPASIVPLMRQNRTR

N[C@@H]1[C@H]2CN(c3nc(Nc4cc(C5CC5)[nH]n4)c4sccc4n3)C[C@@H]12
Ki [1]: 50 nM | Ki [2]: 2 nM

CC1CCN(c2nc(Nc3cc(C4CC4)n[nH]3)c3ccccc3n2)CC1
Ki [1]: 100 nM | Ki [2]: 49 nM

NC1CCN(c2nc(Nc3cc(C4CC4)[nH]n3)c3sccc3n2)CC1
remaining at 1 h, 1 µM [3]: 51% | Ki [4]: 22 nM | Stability [5]: < 1% | Stability (Liver [6]): Stable | Ki [7]: 12 nM

Cc1cc(Nc2nc(N3CCC(N)CC3)nc3ccsc23)n[nH]1
Ki [4]: 179 nM

CCc1cc(Nc2nc(N3CCC(N)CC3)nc3ccsc23)n[nH]1
Ki [4]: 33 nM

CCCc1cc(Nc2nc(N3CCC(N)CC3)nc3ccsc23)n[nH]1
Ki [4]: 48 nM

CC(C)c1cc(Nc2nc(N3CCC(N)CC3)nc3ccsc23)n[nH]1
Ki [4]: 33 nM

NC1CCN(c2nc(Nc3cc(C4CCC4)[nH]n3)c3sccc3n2)CC1
Ki [4]: 18 nM

NC1CCN(c2nc(Nc3cc(-c4ccccc4)[nH]n3)c3sccc3n2)CC1
Ki [4]: 660 nM

NC1CCN(c2nc(Nc3cc(C4CC4)[nH]n3)c3occc3n2)CC1
Ki [4]: 119 nM | Ki [7]: 45 nM

NC1CCN(c2nccc(Nc3cc(C4CC4)[nH]n3)n2)CC1
Ki [4]: 454 nM | Ki [7]: 283 nM

NC1CCN(c2cccc(Nc3cc(C4CC4)[nH]n3)n2)CC1
Ki [4]: 561 nM | Ki [7]: 612 nM

NC1CCN(c2cc(Nc3cc(C4CC4)[nH]n3)ccn2)CC1
Ki [4]: 4390 nM | Ki [7]: 1820 nM

c1cc(Nc2cc(C3CC3)[nH]n2)nc(NCC2CCNCC2)n1
Ki [4]: 245 nM | Ki [7]: 80 nM

N[C@H]1CC[C@H](Nc2nccc(Nc3cc(C4CC4)[nH]n3)n2)CC1
Ki [4]: 157 nM | Ki [7]: 100 nM

N[C@H]1CC[C@H](CNc2nccc(Nc3cc(C4CC4)[nH]n3)n2)CC1
Papp B→A [8]: 2 ×10⁻⁶ cm/s | logD [9]: -0.2 | IC50 [10]: 2200 nM | Ki [4]: 26 nM | solubility kinetic [11]: 149 µM (≈ 48.9 µg/mL) | Stability [5]: 69.3% | Stability (Liver [6]): Stable | Drug uptake (Hepatocyte): Active | Stability (Liver [12]): Stable | Ki [7]: 38 nM | clearance (Mus musculus): 83 mL/min/kg | Papp A→B [13]: 0.5 ×10⁻⁶ cm/s | clearance (Rattus norvegicus): 158 mL/min/kg

N[C@H]1CC[C@@H](CNc2nccc(Nc3cc(C4CC4)[nH]n3)n2)CC1
Ki [4]: 21 nM | Ki [7]: 4 nM

Nc1ccc(CNc2nccc(Nc3cc(C4CC4)[nH]n3)n2)cn1
Stability [14]: 50% | Ki [4]: 138 nM | Stability [15]: 60% | Ki [7]: 563 nM | clearance [16]: 122 mL/min/kg | Drug metabolism [17]: metabolite_notdetected

CNc1ccc(CNc2nccc(Nc3cc(C4CC4)[nH]n3)n2)cn1
Ki [4]: 346 nM | Ki [7]: 610 nM

CN(C)c1ccc(CNc2nccc(Nc3cc(C4CC4)[nH]n3)n2)cn1
Ki [4]: 1470 nM | Ki [7]: 907 nM

c1cc(Nc2cc(C3CC3)[nH]n2)nc(NCc2ccc3[nH]ccc3c2)n1
Ki [4]: 27 nM | Ki [7]: 144 nM | clearance [16]: 30.1 mL/min/kg | logD [18]: 3

C[C@H](Nc1nccc(Nc2cc(C3CC3)[nH]n2)n1)c1ccc2[nH]ccc2c1
IC50 [10]: 120 nM | Ki [4]: 31 nM | Ki [7]: 42 nM | clearance [16]: 30 mL/min/kg

c1cc(Nc2cc(C3CC3)[nH]n2)nc(NCc2ccc3[nH]cnc3c2)n1
Drug metabolism [19]: metabolite_notdetected | Ki [4]: 117 nM | Ki [7]: 961 nM | clearance [16]: 24.1 mL/min/kg | logD [18]: 2.5

Cn1cnc2cc(CNc3nccc(Nc4cc(C5CC5)[nH]n4)n3)ccc21
Ki [4]: 607 nM | Ki [7]: 1660 nM

Cn1cnc2ccc(CNc3nccc(Nc4cc(C5CC5)[nH]n4)n3)cc21
Ki [4]: 584 nM | Ki [7]: 1900 nM

C[C@H](Nc1nccc(Nc2cc(C3CC3)[nH]n2)n1)c1ccc2[nH]cnc2c1
Papp B→A [8]: 6.8 ×10⁻⁶ cm/s | IC50 [10]: 281 nM | fraction unbound [20]: 0.011 | Ki [4]: 12 nM | Ki [7]: 106 nM | clearance [16]: 20.3 mL/min/kg | Papp A→B [13]: 0.9 ×10⁻⁶ cm/s

Fc1c(CNc2nccc(Nc3cc(C4CC4)[nH]n3)n2)ccc2[nH]cnc12
Ki [4]: 179 nM | Ki [7]: 1110 nM

Clc1c(CNc2nccc(Nc3cc(C4CC4)[nH]n3)n2)ccc2[nH]cnc12
Papp B→A [8]: 6.3 ×10⁻⁶ cm/s | IC50 [10]: 362 nM | fraction unbound [20]: 0.002 | Ki [4]: 5 nM | Ki [7]: 455 nM | Papp A→B [13]: 2.8 ×10⁻⁶ cm/s | clearance [21]: 6.4 mL/min/kg

CN(Cc1ccc2[nH]cnc2c1Cl)c1nccc(Nc2cc(C3CC3)[nH]n2)n1
Papp B→A [8]: 18 ×10⁻⁶ cm/s | IC50 [10]: 110 nM | fraction unbound [20]: 0.011 | Ki [4]: 4 nM | bioavailability [22]: 12% | Papp A→B [13]: 1.9 ×10⁻⁶ cm/s | clearance [21]: 67 mL/min/kg

CCN(Cc1ccc2[nH]cnc2c1Cl)c1nccc(Nc2cc(C3CC3)[nH]n2)n1
Papp B→A [8]: 11.1 ×10⁻⁶ cm/s | IC50 [10]: 85 nM | fraction unbound [20]: 0.007 | Ki [4]: 5 nM | Ki [7]: 547 nM | Papp A→B [13]: 7.4 ×10⁻⁶ cm/s | Ki (Aurora kinase A): 5.3 nM | clearance [21]: 61 mL/min/kg

C[C@@H](Nc1nccc(Nc2cc(C3CC3)[nH]n2)n1)c1ccc2[nH]ccc2c1
Ki [4]: 1900 nM
